Measurements: patent US9115092B2, “Substituted quinazoline and pyrido-pyrimidine derivatives” (Asana Biosciences, LLC, priority 2010, dated 2015)

What was measured:
PC3 cells = experiment: XTT assay for cell viability, PC3 cells; type: cell-based, human; conditions: Homo sapiens, PC-3, cell viability
Outline: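 PC3 cells seeded at 1000 cells/well, grown 24 h, then exposed to serial dilutions of compound for 96 h. Viability read by XTT dye at 37° C, absorbance 465 nm. EC50 from sigmoidal dose-response fit.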

[1] = tested on: pAKT(5473) (phosphorylated at serine 473), PC3 cells; experiment: In-cell Western assay, pAKT(5473) in PC3 cells; type: cell-based; conditions: Homo sapiens, PC-3, In-cell Western, read-out: pAkt-S473
Procedure: (§1) Cells from human prostate cancer cell line PC3 (American Type Culture Collection (ATCC), Manassas, Va. 20108 USA) were seeded at an optimal density of 22,000 cell/well in 96-well plates containing Ham's F12K medium (90 μL) and incubated overnight. The compound dilutions were carried out in 100% DMSO followed by a dilution in the medium. Test compounds were added in serial dilutions to the wells and incubated for 2 h. The cells were washed and fixed with 4% paraformaldehyde. After incubation at room temperature for 1 h in the dark, blocking was done for 2 h at room temperature. Primary antibodies for phosphorylated (p) AKT(5473) (phosphorylated at serine 473), pAKT(T308) (phosphorylated at threonine 308) and for pS6RP(S235/236) (phosphorylated at serine 235/236) (commercially available from Cell Signaling Technology®, whose protocol was followed for the in-cell western assay, were diluted to the required concentration and added to the corresponding wells followed by overnight incubation at 4° C. Eu-labeled rabbit (PE) (Perkin-Elmer USA catalog #AD0106) secondary antibody was added and incubated for 2 h at room temperature. Delfia® enhancement solution (cat #1244-105, Perkin Elmer USA) was subsequently added to the plate before taking the reading at 615 nm with excitation wavelength of 340 nm, after which 0.5 μg/mL of Hoechst® 33258 dye (Catalog #86140-5, Sigma) was added to the plate and fluorescence emission was read at 460 nm with 355 nm excitation, to evaluate the correction factor. IC50 values were calculated using a sigmoidal dose-response curve fit in GraphPad Prism® v5 software.

[2] = tested on: pAKT(T308) (phosphorylated at threonine 308), PC3 cells; experiment: In-cell Western assay, pAKT(T308) in PC3 cells; type: cell-based; conditions: Homo sapiens, PC-3, In-cell Western
Procedure: as §1

mTOR kinase = biological target: T1, mTOR kinase (Homo sapiens, UniProt P42345); experiment: mTOR kinase TR-FRET assay; type: biochemical; conditions: read-out: mTO R
T1 construct: purchased Millipore, USA
Outline: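 Compounds preincubated 60 min with mTOR (5 ng) in HEPES pH 7.5, EGTA, MnCl2; ULight-p70 S6K Thr389 peptide (50 nM) and ATP (20 μM) then added, 60 min at room temperature. EDTA-stopped, Eu-anti-phospho antibody detection by TR-FRET (665/615 nm); IC50 from variable-slope sigmoidal fit.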

[3] = tested on: pS6RP(S235/236), PC3 cells; experiment: In-cell Western assay, pS6RP(S235/236) in PC3 cells; type: cell-based, human; conditions: Homo sapiens, PC-3, In-cell Western
Outline: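 Overnight-seeded PC3 cells were treated 2 h with serially diluted compound, then fixed and immunostained with phospho-specific primary antibodies and Eu-labelled secondary. Time-resolved Eu signal read at 615 nm (ex 340 nm), normalised by Hoechst 33258 staining (ex 355/em 460 nm); IC50 from sigmoidal dose-response fit.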

[4] = biological target: T2, PI3Kα (wild-type), P110/P85α (Homo sapiens, UniProt P42336); experiment: PI3 Kinase TR-FRET assay, PI3Kα (wild-type); type: biochemical
T2 construct: made in house; host or cells: SF9 insect cells
T2 sequence (P42336 whole entry): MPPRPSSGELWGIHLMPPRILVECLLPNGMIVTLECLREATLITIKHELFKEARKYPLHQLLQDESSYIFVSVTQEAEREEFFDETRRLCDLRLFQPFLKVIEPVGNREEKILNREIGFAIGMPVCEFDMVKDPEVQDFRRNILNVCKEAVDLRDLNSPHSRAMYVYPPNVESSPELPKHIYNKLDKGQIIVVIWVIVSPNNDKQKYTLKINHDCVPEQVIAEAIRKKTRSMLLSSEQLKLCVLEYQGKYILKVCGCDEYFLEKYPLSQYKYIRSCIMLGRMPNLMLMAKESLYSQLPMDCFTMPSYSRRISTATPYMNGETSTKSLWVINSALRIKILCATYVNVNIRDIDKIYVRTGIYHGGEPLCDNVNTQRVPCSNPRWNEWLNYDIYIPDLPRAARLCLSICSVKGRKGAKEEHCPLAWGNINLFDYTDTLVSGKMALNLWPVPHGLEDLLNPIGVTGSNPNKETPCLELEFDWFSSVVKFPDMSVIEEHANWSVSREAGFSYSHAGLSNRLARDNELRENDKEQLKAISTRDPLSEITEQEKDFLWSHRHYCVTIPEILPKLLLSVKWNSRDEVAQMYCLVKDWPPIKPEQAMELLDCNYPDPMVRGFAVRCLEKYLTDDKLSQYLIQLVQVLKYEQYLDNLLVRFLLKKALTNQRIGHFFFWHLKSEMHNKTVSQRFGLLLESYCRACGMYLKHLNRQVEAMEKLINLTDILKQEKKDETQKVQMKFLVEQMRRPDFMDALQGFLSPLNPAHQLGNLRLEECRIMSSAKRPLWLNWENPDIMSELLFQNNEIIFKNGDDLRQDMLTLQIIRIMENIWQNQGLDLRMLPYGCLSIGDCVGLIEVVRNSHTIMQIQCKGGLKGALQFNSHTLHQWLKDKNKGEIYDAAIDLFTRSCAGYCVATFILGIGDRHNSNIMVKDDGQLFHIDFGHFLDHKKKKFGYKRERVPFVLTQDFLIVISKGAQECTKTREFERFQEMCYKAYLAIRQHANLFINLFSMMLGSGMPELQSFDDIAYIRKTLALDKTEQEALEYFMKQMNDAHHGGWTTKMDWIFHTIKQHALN
T2 sequence (P27986 whole entry partner): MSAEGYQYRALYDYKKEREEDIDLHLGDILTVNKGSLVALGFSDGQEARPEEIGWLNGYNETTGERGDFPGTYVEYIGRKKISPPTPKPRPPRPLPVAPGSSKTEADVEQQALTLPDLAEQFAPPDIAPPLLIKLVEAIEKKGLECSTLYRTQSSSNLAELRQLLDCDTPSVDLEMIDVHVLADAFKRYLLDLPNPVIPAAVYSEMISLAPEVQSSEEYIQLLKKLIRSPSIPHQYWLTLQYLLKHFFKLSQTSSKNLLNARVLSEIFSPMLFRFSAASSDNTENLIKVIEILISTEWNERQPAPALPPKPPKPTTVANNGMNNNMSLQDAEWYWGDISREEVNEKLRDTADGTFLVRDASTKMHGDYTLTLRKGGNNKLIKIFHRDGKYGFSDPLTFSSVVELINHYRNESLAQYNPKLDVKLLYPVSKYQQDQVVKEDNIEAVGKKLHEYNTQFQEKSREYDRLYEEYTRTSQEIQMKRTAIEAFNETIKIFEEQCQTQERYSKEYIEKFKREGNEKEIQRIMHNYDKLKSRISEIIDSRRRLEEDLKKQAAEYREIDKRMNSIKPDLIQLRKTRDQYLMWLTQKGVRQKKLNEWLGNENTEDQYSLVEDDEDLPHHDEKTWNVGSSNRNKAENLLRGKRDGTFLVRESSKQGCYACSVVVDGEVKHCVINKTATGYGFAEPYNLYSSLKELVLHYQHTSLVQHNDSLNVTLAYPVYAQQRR
Outline: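 Sf9-expressed His-purified P110/P85α (5 ng) preincubated 60 min RT with compound and PIP2 in buffer with 40 mM MgCl2, 5 mM DTT; reaction started with ATP (PIP2 and ATP both 10 μM), 30 min RT. PIP3 detected by TR-FRET displacement, 665/615 nm ratio; IC50 from dose-response curves.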

Row | Structure (SMILES) | IC50 (PC3 cells) [nM] | IC50 [1] [nM] | IC50 [2] [nM] | IC50 (mTOR kinase) [nM] | IC50 [3] [nM] | IC50 [4] [nM]
1 | CN(C)C(=O)c1ccc(NC(=O)Nc2ccc(-c3nc(N4CCOCC4)c4ccc(-c5cccc(S(C)(=O)=O)c5)cc4n3)cc2)cc1 [Example 19, 4-(3-{4-[7-(3-methanesulfonyl-phenyl)-4-morpholin-4-yl-quinazolin-2-yl]-phenyl}-ureido)-N,N-dimethyl-benzamide] | < 100 | 100 to 500 | 100 to 500 | < 50 | < 100 | < 50
2 | CNC(=O)c1ccc(NC(=O)Nc2ccc(-c3nc(N4CCOCC4)c4ccc(-c5cccc(S(C)(=O)=O)c5)cc4n3)cc2)cc1 [Example 20, 4-(3-{4-[7-(3-methanesulfonyl-phenyl)-4-morpholin-4-yl-quinazolin-2-yl]-phenyl}-ureido)-N-methyl-benzamide] | 100 to 500 | 100 to 500 | 100 to 500 | < 50 | 100 to 500 | < 50
3 | CN(C)C(=O)c1ccc(NC(=O)Nc2ccc(-c3nc(N4CCOCC4)c4ccc(-c5cnn(C)c5)cc4n3)cc2)cc1 [Example 22, N,N-dimethyl-4-(3-{4-[7-(1-methyl-1H-pyrazol-4-yl)-4-morpholin-4-yl-quinazolin-2-yl]-phenyl}-ureido)-benzamide] | < 100 | 100 to 500 | 100 to 500 | < 50 | < 100 | < 50
4 | CN(C)C(=O)c1ccc(NC(=O)Nc2ccc(-c3nc(N4CCOCC4)c4ccc(-c5cccnc5)cc4n3)cc2)cc1 [Example 24, N,N-dimethyl-4-{3-[4-(4-morpholin-4-yl-7-pyridin-3-yl-quinazolin-2-yl)-phenyl]-ureido}-benzamide] | < 100 | 100 to 500 | 100 to 500 | < 50 | < 100 | < 50
5 | CN1CCN(C(=O)c2ccc(NC(=O)Nc3ccc(-c4nc(N5CCOCC5)c5ccc(-c6cccnc6)cc5n4)cc3)cc2)CC1 [Example 33, 1-[4-(4-methyl-piperazine-1-carbonyl)-phenyl]-3-[4-(4-morpholin-4-yl-7-pyridin-3-yl-quinazolin-2-yl)-phenyl]-urea] | < 100 | 100 to 500 | 100 to 500 | < 50 | < 100 | < 50
6 | CN(C)C(=O)c1ccc(NC(=O)Nc2ccc(-c3nc(N4CCOCC4)c4cc(F)c(-c5cnn(C)c5)cc4n3)cc2)cc1 [Example 35, 4-(3-{4-[6-Fluoro-7-(1-methyl-1H-pyrazol-4-yl)-4-morpholin-4-yl-quinazolin-2-yl]-phenyl}-ureido)-N,N-dimethyl-benzamide] | < 100 | 100 to 500 | 100 to 500 | < 50 | < 100 | < 50
7 | CN(C)C(=O)c1ccc(NC(=O)Nc2ccc(-c3nc(N4CCOCC4)c4ncc(-c5cnn(C)c5)cc4n3)cc2)cc1 [Example 42, N,N-dimethyl-4-(3-{4-[7-(1-methyl-1H-pyrazol-4-yl)-4-morpholin-4-yl-pyrido[3,2-d]pyrimidin-2-yl]-phenyl}-ureido)-benzamide] | < 100 | < 100 | 100 to 500 | < 50 | 100 to 500 | < 50
8 | CN(C)CCN(C)C(=O)c1ccc(NC(=O)Nc2ccc(-c3nc(N4CCOCC4)c4ccc(-c5cncnc5)cc4n3)cc2)cc1 [Example 44, N-(2-dimethylamino-ethyl)-N-methyl-4-{3-[4-(4-morpholin-4-yl-7-pyrimidin-5-yl-quinazolin-2-yl)-phenyl]-ureido}-benzamide] | < 100 | < 100 | < 100 | < 50 | < 100 | < 50
9 | CN(C)C(=O)c1ccc(NC(=O)Nc2ccc(-c3nc(N4CCOCC4)c4ncc(-c5cccnc5)cc4n3)cc2)cc1 [Example 46, N,N-dimethyl-4-{3-[4-(4-morpholin-4-yl-7-pyridin-3-yl-pyrido[3,2-d]pyrimidin-2-yl)-phenyl]-ureido}-benzamide] | < 100 | < 100 | 100 to 500 | < 50 | < 100 | < 50
10 | CC(=O)Nc1cccc(-c2ccc3c(N4CCOCC4)nc(-c4ccc(NC(=O)Nc5ccc(C(=O)N(C)C)cc5)cc4)nc3c2)c1 [Example 49, 4-(3-{4-[7-(3-acetylamino-phenyl)-4-morpholin-4-yl-quinazolin-2-yl]-phenyl}-ureido)-N,N-dimethyl-benzamide] | < 100 | 100 to 500 | 100 to 500 | < 50 | < 100 | < 50
11 | CN(C)C(=O)c1ccc(NC(=O)Nc2ccc(-c3nc(N4CCOCC4)c4ccc(-c5cccc(S(C)(=O)=O)c5)cc4n3)cc2F)cc1 [Example 118, 4-(3-(2-fluoro-4-(7-(3-(methylsulfonyl)phenyl)-4-morpholino-quinazolin-2-yl)phenyl)ureido)-N,N-dimethyl-benzamide] | 201 to 10000 | 501 to 5000 |  | < 50 | 201 to 10000 | < 50
12 | CC(=O)Nc1ccc(NC(=O)Nc2ccc(-c3nc(N4CCOCC4)c4ccc(-c5cncnc5)cc4n3)cc2)cc1 [Example 291, N-(4-(3-(4-(4-morpholino-7-(pyrimidin-5-yl)quinazolin-2-yl)phenyl)ureido)phenyl)-acetamide] | 100 to 500 |  | 501 to 5000 | < 50 | 100 to 500 | < 50
